{"source": "patent US10729810B2", "about": "“Methods, systems, and compositions for promoting bone growth” (Cayman Chemical Company, Inc., priority 2013, dated 2020)", "key": {"[1]": {"molecular_target": "T1, Human Prostanoid EP4 Receptor (Homo sapiens, UniProt P35408)", "T1 construct": "expressed in transfected cells; host or cells: HEK-293 cells (membrane homogenates)", "T1 sequence (P35408 whole entry)": "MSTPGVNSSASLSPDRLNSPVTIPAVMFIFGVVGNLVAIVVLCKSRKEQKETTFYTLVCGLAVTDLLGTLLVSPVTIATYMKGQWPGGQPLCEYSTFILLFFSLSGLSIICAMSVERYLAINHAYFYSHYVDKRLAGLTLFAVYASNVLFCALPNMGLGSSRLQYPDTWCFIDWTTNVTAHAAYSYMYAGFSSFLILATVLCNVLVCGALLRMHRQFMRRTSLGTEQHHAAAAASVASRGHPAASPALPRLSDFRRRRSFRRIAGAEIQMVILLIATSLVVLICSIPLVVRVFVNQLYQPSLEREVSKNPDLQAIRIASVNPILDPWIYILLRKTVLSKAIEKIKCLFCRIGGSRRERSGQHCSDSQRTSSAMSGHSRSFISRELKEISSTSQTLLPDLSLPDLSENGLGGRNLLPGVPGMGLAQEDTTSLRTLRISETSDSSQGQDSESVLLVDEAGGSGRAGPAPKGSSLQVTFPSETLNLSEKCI", "assay": "Radioligand binding assay, agonist site of human prostanoid EP4 receptor in transfected HEK-293 cells", "conditions": "for hEP4 receptor binding, % @100: @100, printed in the IC50 (nM) column", "experimental": "Radioligand Binding Assay for the Evaluation of the Affinity of Compounds for the Agonist Site of the Human Prostanoid EP4 Receptor in Transfected HEK-293 Cells\nFollowing incubation, the samples are filtered rapidly under vacuum through glass fiber filters (GF/B, Packard) presoaked with 0.3% PEI and rinsed several times with ice-cold 50 mM Tris-HCl using a 96-sample cell harvester (Unifilter, Packard). The filters are dried then counted for radioactivity in a scintillation counter (Topcount, Packard) using a scintillation cocktail (Microscint 0, Packard)."}, "[2]": {"test_system": "rat calvarial defect", "assay": "Rat calvarial defect model, drug in calcium phosphate cement suspended in demineralized bone matrix putty", "format": "in vivo, female Sprague Dawley rats", "conditions": "2.6 mm defect, eight weeks", "experimental": "The rat calvarial defect model is a widely used model through which the ability of a treatment agent to induce bone formation is assessed (Aghaloo et al., The effect of NELL1 and bone morphogenetic protein-2 on calvarial bone regeneration, J. Oral Maxillofac. Surg. 2010: 68:300-308; Mark et al., Repair of calvarial nonunions by osteogenin, a bone-inductive protein, Plast. Reconstr. Surg. 1990: 86:623-30).\nBone defects are created by removal of bone from the cranium of female Sprague Dawley rats by a bone trephine (cranial defect). Cranial defects are 2.6 mm in diameter and the cranium approximately 1 mm thick. A matrix of approximately 2 mm thickness is applied to the defect. Thus the dosing volume for each defect is calculated as π*r^2*matrix thickness=3.14*1.3^2*2=10.61 μl and rounded to 11 μl for purposes of dose calculation.\nEXAMPLE 2C is tested at seven doses with five rats in each group. These are 3, 10, 30, 100 and 300 μg/ml and 1 and 3 mg/ml. A negative control group treated with dosing matrix containing no drug (Vehicle) as well as a positive control group treated with 50 μg/ml recombinant human bone morphogenetic protein 2 (BMP-2) are also included in the study. […]\nThe area measured each week is compared to that of the first week and the degree of repair calculated by the following formula: (original area−current area)/original area*100 […]"}, "[3]": {"test_system": "rat calvarial defect", "assay": "Rat calvarial defect model, drug-cement loaded into intact demineralized bone matrix", "format": "in vivo, female Sprague Dawley rats", "conditions": "5.0 mm defect; 10 mg/gm of cement; four weeks; FIG. 4", "experimental": "Bone defects are created by removal of bone from the cranium of female Sprague Dawley rats by a bone trephine (cranial defect). Cranial defects are 5.0 mm in diameter and the cranium approximately 1 mm thick.\nEXAMPLE 2E′ is delivered inside calcium phosphate cement that, after loading with drug set inside three voids each of approximately 1.0 mm in diameter drilled into a solid demineralized bone matrix circular block of 5.0 mm in diameter and 1 mm thickness. EXAMPLE 2E′ is tested at 10 mg/gm of cement. A negative control group treated with dosing matrix containing no drug (Vehicle) is also included in the study.\nDosing solutions are made from a 5 mg/ml EXAMPLE 2E′ stock which is made by dissolving 2.08 mg of neat EXAMPLE 2E′ in 416 μl of 100% ethanol.\nThe volume of each dosing void is π*r^2*matrix thickness=3.14*0.5^2*1=0.8 μl. Thus a 5 mm solid demineralized matrix with three voids filled with cement contains 2.4 μl of loading cement. The cement that is used weighs 107 mg for 100 μl volume. Thus 2.4 ul of volume is occupied by 2.6 mg of cement. A 10 mg/gm dosing cement provides 26 ug of EXAMPLE 2E′ for each 5 mm intact demineralized bone matrix block. […]\nThe area measured each week is compared to that of the first week and the degree of repair calculated by the following formula: (original area−current area)/original area*100"}, "[4]": {"test_system": "osteoporotic femur", "assay": "Bone density of osteoporotic femur after osteotomy with drug-cement insert in ovariectomized rats", "format": "in vivo, Female Sprague Dawley rats", "experimental": "Dosing solutions are made from a 5 mg/ml Example 2E' stock which is made by dissolving 2.08 mg of neat Example 2E' in 416 μl of 100% ethanol. The dosing solution for Example 2E' was made by adding 44.4 μL of the 5 mg/ml stock to 22.2 mg of calcium phosphate cement powder. The Vehicle dosing solution was made by adding 50.4 μl of ethanol containing no Example 2E' to 25.2 mg of calcium phosphate cement powder. After the ethanol has been vented off, the cement is wetted with a setting solution and mixed thoroughly for 1 minute as the cement begins to set. The cement is separated into five aliquots and placed on a glass microscope slide. […] After obtaining the CT image the cross sectional density of the bone 3 mm dorsal to the implant site is measured in three places and the measurements averaged. The density of the phantom is measured at the same time and is compared to the phantom measurement on week 0. […] For example the density of the femur of a vehicle treated rat imaged on week 0 is measured at 3028, 3597 and 3329 units (average=3318) and the phantom measured 4209 units. […] The relative density on bone at week 3 compared to week 0 is then calculated as: average week 3normalized/average week 0*100=3378/3318*100=101.8% The mean change in bone density of both groups after three weeks of treatment is shown in FIG. 5. […]"}}}
{"smiles": "CCCC#CCC(C)[C@H](O)/C=C/[C@H]1CCC(=O)N1CCCCCCC(=O)O", "note": "(mixture of isomers) [3C′, 7-((2R)-2-((3S,4R/S,E)-3-hydroxy-4-methyldec-1-en-6-yn-1-yl)-5-oxopyrrolidin-1-yl)heptanoic acid]", "values": [{"measurement": "melting point", "value": "104 to 105", "unit": "°C"}]}
{"smiles": "CC#CCC(C)[C@H](O)/C=C/[C@H]1CCC(=O)N1CCCCCCC(=O)O", "note": "(mixture of isomers) [Example 1C′, 7-((2R)-2-((3S,4R/S,E)-3-hydroxy-4-methyloct-1-en-6-yn-1-yl)-5-oxopyrrolidin-1-yl)heptanoic acid]", "values": [{"measurement": "hEP4 receptor binding, % @100", "setting": "[1]", "value": 86, "unit": "% @100"}]}
{"smiles": "CC#CCC(C)[C@@H](O)/C=C/[C@H]1CCC(=O)N1CCCCCCC(=O)O", "note": "(mixture of isomers) [Example 1D′, 7-((2R)-2-((3R,4R/S,E)-3-hydroxy-4-methyloct-1-en-6-yn-1-yl)-5-oxopyrrolidin-1-yl)heptanoic acid]", "values": [{"measurement": "hEP4 receptor binding, % @100", "setting": "[1]", "value": 11, "unit": "% @100"}]}
{"smiles": "CCC#CC[C@H](C)[C@H](O)/C=C/[C@H]1CCC(=O)N1CCCCCCC(=O)O", "note": "[2E′, 7-((R)-2-((3S,4S,E)-3-hydroxy-4-methylnon-1-en-6-yn-1-yl)-5-oxopyrrolidin-1-yl)heptanoic acid]", "values": [{"measurement": "Healing of a calvarial bone defect", "setting": "[2]; 3 mg/ml in cement-DBM putty 1:8, FIG. 2", "value": "Accelerated Healing"}, {"measurement": "Healing of a calvarial bone defect, loaded into intact demineralized bone matrix", "setting": "[3]", "value": "Accelerated Healing"}, {"measurement": "Bone density of osteoporotic femur", "setting": "[4]; 10 mg/gm cement insert, three weeks, FIG. 5", "value": "Increased Bone Density"}]}
{"smiles": "CCC#CC[C@H](C)[C@H](O)/C=C/[C@H]1CC(F)(F)C(=O)N1CCCCCCC(=O)O", "note": "[Example 2C, 7-((R)-3,3-difluoro-5-((3S,4S,E)-3-hydroxy-4-methylnon-1-en-6-yn-1-yl)-2-oxopyrrolidin-1-yl)heptanoic acid]", "values": [{"measurement": "Healing of a calvarial bone defect", "setting": "[2]; 3 μg/ml to 3 mg/ml in cement-DBM putty 1:8, FIG. 1", "value": "Accelerated Healing"}]}
{"smiles": "C[C@@H](CCCc1ccccc1)[C@H](O)/C=C/[C@H]1CC(F)(F)C(=O)N1CCCCCCC(=O)O", "note": "[Example 6D, 7-((R)-3,3-difluoro-5-((3S,4S,E)-3-hydroxy-4-methyl-7-phenylhept-1-en-1-yl)-2-oxopyrrolidin-1-yl)heptanoic acid]", "values": [{"measurement": "IC50", "setting": "[1]; 0.5 nM [3H]PGE2, HEK-293 cell membrane homogenates, read-out: hEP4 receptor binding (nM) IC50", "value": 2.4, "unit": "nM"}, {"measurement": "Ki", "setting": "[1]; 0.5 nM [3H]PGE2, HEK-293 cell membrane homogenates, read-out: hEP4 receptor binding (nM) Ki", "value": 0.89, "unit": "nM"}]}
{"smiles": "C[C@@H](CCCc1ccccc1)[C@H](O)/C=C/[C@H]1CC(F)(F)C(=O)N1CCCc1ccc(C(=O)O)s1", "note": "[Example 28C, 5-(3-((R)-3,3-difluoro-5-((3S,4S,E)-3-hydroxy-4-methyl-7-phenylhept-1-en-1-yl)-2-oxopyrrolidin-1-yl)propyl)thiophene-2-carboxylic acid]", "values": [{"measurement": "Bone density of osteoporotic femur", "setting": "[4]; 100 μg/gm or 300 μg/gm cement insert, twenty weeks, FIG. 6", "value": "Increased Bone Density"}]}
